pKd: −log10 of the molar value.

The source of these data is PMC8766838, “Discovery of Small Molecule NSC290956 as a Therapeutic Agent for KRas Mutant Non-Small-Cell Lung Cancer” (Frontiers in Pharmacology, 2022).

The target of one assay is T1, HRasG60A (Homo sapiens, UniProt P01112, G60A).
T1 construct: gene HRAS
As to the kind of experiment: SPR (steady-state); circular dichroism in support. Type of assay: binding.

The target of the next assay is T2, KRas (Homo sapiens, UniProt P01116, G12S).
T2 construct: endogenous, A549 cells
As to the kind of experiment: CETSA in A549 cells ([…]°C stabilization at […]). The assay is classed as cell-based.

T1 sequence (P01112 1-166 G60A): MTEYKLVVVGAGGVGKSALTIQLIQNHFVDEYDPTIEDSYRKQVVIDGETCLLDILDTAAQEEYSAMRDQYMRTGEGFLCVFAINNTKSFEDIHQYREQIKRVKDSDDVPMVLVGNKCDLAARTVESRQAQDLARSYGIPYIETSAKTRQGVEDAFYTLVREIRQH

Broadly, the pKd is the negative decadic logarithm of the Kd, by convention in mol/L. The molecule `O=C1CSC2(CCN(CCCN3c4ccccc4Sc4ccc(Cl)cc43)CC2)N1` [NSC290956, 1-Thia-4,8-diazaspiro[4.5]decan-3-one,8-[3-(2-chloro-10H-phenothiazin-10-yl)propyl]] had a negative logarithm of the Kd (pKd) on HRasG60A of 4.67. For the same molecule, on KRas, the “CETSA in A549 cells (4-6°C stabilization at 25 μM)” value was “target engagement of NSC290956 in KRas-addicted H358 (KRasG12C) and A549 (KRasG12S) cell lines”.
